Measurements published in patent US20250326988A1, “SELF-PRESERVED, MILD LIQUID LAUNDRY DETERGENT FORMULAS” (Henkel AG & Co. KGaA, priority 2024, published 2025).

Tested on: Fungi
Experiment: Micro challenge, fungi reduction
Assay type: cell-based
Conditions: for Estimated Regression Coefficients for 7 Day: Coefficient / Estimated Regression Coefficients for 14 Day: Coefficient / Estimated Regression Coefficients for 21 Day: Coefficient / Estimated Regression Coefficients for 28 Day: Coefficient: Minitab regression of fungi log reductions; for efficacy of ingredient for log reduction as indicated by estimated regression coefficients: ethanol at day 7, sodium chloride afterwards
Protocol: Micro challenges were performed on Formulations 61J-L, 62A-M, […] and […] prepared in Example 1 for log reduction rates of bacteria and fungi. Bacteria were double challenged (inoculated about 1E08 to 1E09 CFU/g) and Fungi was single challenged (inoculated about 1E8 to 5E8). A. brasillienis (mold), S. aureus, E. coli, P. gergoviae/[…] mixture, P. aeruginosa, C. albicans (yeast), H. venusta were tested. Pass criteria for bacterium was greater than 3 log reduction on day 7 and 4 logs on day 28. Pass criteria for fungi was greater than 1 log reduction at 14 days with no growth observed afterwards.

Row | Structure (SMILES) | Estimated Regression Coefficients for 7 Day: Coefficient | Estimated Regression Coefficients for 14 Day: Coefficient | Estimated Regression Coefficients for 21 Day: Coefficient | Estimated Regression Coefficients for 28 Day: Coefficient | efficacy of ingredient for log reduction as indicated by estimated regression coefficients
1 | CC(C(=O)O)N(CC(=O)O)CC(=O)O (centres unmarked) [MGDA, methylglycinediacetic acid] | 1.16 | 1.42 | 1.43 | 1.42 | –
2 | CCO [Ethanol] | 2.24 | 3.08 | 3.22 | 3.09 | most effective log reduction
3 | [Cl-].[Na+] [NaCl, sodium chloride] | 1.36 | 2.14 | 3.13 | 3.42 | comparable to ethanol's efficacy
